pIC50: −log10 of the molar value.
Assays:
[1] = biological target: Recombinant PRC2 (EZH2-Y641F) (Homo sapiens (Human), UniProt Q15910, Y641F); assay: In vitro methyltransferase activity assay (LANCE Ultra); type: biochemical; details: for pIC50: 2.5 μM SAM/250 nM H3(1-50)K27me1, 3 hours, room temperature; for inhibitory activity against the enzyme (in words): SAR comment on Table 1, reduced relative to comparator compounds (P-7, P-13/14)
Experimental: Recombinant PRC2 (EZH2-Y641F) was purchased from Active motif, S-adenosyl-methionine (SAM) and Poly-L-lysine (PLL) were purchased from Sigma-Aldrich, and H3(1-50)K27me1 peptide was purchased from Cisbio. LANCEUltrasystem (Perkinelmer) was used for detection system. In the enzyme activity test, compounds to be tested were diluted by 8 gradient points in a ratio of 1:3, and added into each well in a reaction plate, and 100 ng recombinase was added, followed by a buffer [20 mM Tris pH8.5, 2 mM MgCl2, 0.01% Tween-20, 1 mM TCEP] containing 2.5 μM SAM/250 nM H3 (1-50)K27me1 premixtures. Enzymatic reaction thus began at room temperature. After reacted for 3 hours, a detection solution premixed with PLL, detection antibody and Ulight was added, and reacted for 1 hour at room temperature. The fluorescence value was then read on a Tecan infinite pro. IC50 was calculated by fitting in a four-factor model in the XLfit software.

Pfeiffer cells = assay: Cell proliferation assay (Cell counting kit-8, 6 days); type: cell-based; details: Pfeiffer (CRL-2632), 6 days culture
Experimental: The used cell lines Pfeiffer (CRL-2632), suDHL-6 (CRL-2959) and suDHL-10 (CRL-2963) were obtained from American Type Culture Collection (ATCC). All cell lines were cultured in RPMI-1640 medium (Gibco) containing 10% fetal bovine serum (Gibco). The cultured cells were harvested by centrifugation and the cell density was determined using a CounterStar cell counter. Appropriate number of cells were plated in a 96-well culture plate and incubated overnight. Compounds to be tested were diluted by 8 gradient points in a ratio of 1:3 and added into corresponding wells. After continuing to culture for 6 days, the number of viable cells was measured with Cell counting kit-8, and the absorbance value was read on Tecan infinite pro. The IC50 was calculated by fitting in a four-parameter model in the XLfit software.

Sequence of Recombinant PRC2 (EZH2-Y641F) (Q15910 whole entry Y641F): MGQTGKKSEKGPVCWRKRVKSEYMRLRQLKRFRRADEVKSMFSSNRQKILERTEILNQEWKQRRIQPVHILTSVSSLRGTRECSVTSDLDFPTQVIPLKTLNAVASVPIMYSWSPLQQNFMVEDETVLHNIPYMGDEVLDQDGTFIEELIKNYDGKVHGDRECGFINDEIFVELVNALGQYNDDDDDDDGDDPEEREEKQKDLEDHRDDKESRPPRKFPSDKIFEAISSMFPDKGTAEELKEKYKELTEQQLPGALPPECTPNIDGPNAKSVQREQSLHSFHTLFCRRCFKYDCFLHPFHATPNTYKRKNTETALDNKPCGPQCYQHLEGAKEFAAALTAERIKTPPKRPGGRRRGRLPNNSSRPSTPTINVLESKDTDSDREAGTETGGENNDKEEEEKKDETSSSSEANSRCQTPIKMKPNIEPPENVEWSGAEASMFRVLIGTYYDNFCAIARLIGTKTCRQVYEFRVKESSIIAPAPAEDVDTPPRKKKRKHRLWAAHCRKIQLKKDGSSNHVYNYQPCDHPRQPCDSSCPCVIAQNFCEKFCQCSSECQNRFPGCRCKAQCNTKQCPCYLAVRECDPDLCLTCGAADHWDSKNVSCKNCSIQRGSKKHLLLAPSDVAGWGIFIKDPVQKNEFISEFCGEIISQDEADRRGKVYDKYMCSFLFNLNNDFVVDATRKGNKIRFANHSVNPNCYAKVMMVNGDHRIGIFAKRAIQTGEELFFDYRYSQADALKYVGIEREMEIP
Sequence of Recombinant PRC2 (EZH2-Y641F) (O75530 whole entry partner): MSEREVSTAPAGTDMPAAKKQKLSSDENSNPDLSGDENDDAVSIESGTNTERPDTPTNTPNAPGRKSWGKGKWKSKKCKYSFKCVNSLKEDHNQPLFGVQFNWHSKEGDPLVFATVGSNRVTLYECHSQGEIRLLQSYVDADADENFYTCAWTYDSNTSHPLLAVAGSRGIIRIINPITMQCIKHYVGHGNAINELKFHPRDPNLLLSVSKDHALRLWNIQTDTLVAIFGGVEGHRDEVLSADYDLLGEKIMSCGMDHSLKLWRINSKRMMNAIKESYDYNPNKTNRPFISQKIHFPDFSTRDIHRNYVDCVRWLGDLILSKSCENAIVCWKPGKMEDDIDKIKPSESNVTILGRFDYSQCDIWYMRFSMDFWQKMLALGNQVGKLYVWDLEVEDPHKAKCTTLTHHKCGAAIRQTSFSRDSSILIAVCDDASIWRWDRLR
Sequence of Recombinant PRC2 (EZH2-Y641F) (Q15022 whole entry partner): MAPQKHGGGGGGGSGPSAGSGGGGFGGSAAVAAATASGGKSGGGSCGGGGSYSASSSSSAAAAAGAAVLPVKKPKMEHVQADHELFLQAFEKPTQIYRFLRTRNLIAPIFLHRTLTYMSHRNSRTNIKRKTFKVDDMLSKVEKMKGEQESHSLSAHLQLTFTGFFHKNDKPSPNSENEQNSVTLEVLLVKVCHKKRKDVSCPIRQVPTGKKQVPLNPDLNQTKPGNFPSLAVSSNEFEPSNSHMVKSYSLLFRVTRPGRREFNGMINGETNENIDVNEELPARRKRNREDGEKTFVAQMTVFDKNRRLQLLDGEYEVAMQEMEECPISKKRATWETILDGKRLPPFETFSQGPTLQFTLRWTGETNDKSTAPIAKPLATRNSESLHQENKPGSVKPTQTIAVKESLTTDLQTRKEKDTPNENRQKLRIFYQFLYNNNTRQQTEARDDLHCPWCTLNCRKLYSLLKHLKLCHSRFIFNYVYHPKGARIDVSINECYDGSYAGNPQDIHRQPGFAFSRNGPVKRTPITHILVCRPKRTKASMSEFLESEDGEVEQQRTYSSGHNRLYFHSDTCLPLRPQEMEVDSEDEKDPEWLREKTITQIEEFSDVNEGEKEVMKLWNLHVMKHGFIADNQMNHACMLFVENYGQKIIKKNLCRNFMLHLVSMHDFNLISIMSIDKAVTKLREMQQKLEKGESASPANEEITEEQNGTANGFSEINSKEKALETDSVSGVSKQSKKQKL
Sequence of Recombinant PRC2 (EZH2-Y641F) (Q09028 whole entry partner): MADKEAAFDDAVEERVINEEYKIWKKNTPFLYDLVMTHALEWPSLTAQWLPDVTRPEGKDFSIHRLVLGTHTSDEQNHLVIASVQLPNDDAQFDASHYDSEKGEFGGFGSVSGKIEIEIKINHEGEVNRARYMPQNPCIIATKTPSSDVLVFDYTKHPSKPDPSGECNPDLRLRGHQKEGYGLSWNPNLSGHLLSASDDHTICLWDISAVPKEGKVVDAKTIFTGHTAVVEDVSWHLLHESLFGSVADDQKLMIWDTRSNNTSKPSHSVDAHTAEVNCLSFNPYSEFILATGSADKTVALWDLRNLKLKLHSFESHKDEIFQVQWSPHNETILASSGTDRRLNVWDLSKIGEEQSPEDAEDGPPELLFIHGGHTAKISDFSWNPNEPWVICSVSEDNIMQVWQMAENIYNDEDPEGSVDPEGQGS
Sequence of Recombinant PRC2 (EZH2-Y641F) (Q6ZN18 whole entry partner): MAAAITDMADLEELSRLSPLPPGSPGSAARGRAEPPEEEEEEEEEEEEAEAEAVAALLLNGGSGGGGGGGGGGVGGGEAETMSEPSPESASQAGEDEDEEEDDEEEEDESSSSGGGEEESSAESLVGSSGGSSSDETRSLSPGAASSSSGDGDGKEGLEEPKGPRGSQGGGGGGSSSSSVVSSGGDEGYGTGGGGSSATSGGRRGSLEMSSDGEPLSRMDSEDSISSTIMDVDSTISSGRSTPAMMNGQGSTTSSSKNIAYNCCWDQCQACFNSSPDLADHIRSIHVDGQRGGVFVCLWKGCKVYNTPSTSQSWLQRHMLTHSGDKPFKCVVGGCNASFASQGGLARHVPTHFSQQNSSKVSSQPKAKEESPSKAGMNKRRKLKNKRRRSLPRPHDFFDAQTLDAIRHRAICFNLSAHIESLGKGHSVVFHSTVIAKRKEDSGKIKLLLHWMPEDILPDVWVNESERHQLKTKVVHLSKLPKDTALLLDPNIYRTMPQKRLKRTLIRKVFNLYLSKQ

7-(ethyl(tetrahydro-2H-pyran-4-yl)amino)-N-((4-methoxy-6-methyl-2-oxo-1,2-dihydropyridin-3-yl)methyl)-1,6-dimethyl-1H-imidazole-5-carboxamide [P-4]
pIC50 [1]: 6.30
inhibitory activity against the enzyme (in words) [1]: significantly reduced

CCN(c1cc(C(=O)NCc2c(C)cc(C)[nH]c2=O)c(C)c2c1cnn2C)C1CCOCC1 [D1, N-((4,6-dimethyl-2-oxo-1,2-dihydropyridin-3-yl)methyl)-4-(ethyl(tetrahydro-2H-pyran-4-yl)amino)-1,7-dimethyl-1H-indazole-6-carboxamide, reference compound]
pIC50 (Pfeiffer cells; Homo sapiens, 144 h): < 5.00
pIC50 [1]: < 5.00

CCN(c1c(C)c(C(=O)NCc2c(OC)cc(C)[nH]c2=O)cc2c1cnn2C)C1CCOCC1 [P-1, 4-(ethyl (tetrahydro-2H-pyran-4-yl)amino)-N-((4-methoxy-6-methyl-2-oxo-1,2-dihydropyridin-3-yl)methyl)-1,5-dimethyl-1H-indazole-6-carboxamide]
pIC50 (Pfeiffer cells; Homo sapiens, 144 h): 7.03
pIC50 [1]: 7.60

CCN(c1c(C)c(C(=O)NCc2c(OC)cc(C)[nH]c2=O)cc2[nH]ncc12)C1CCOCC1 [P-2, 4-(ethyl(tetrahydro-2H-pyran-4-yl)amino)-N-((4-methoxy-6-methyl-2-oxo-1,2-dihydropyridin-3-yl)methyl)-5-methyl-1H-indazole-6-carboxamide]
pIC50 [1]: 7.62

CCN(c1c(C)c(C(=O)NCc2c(OC)cc(C)[nH]c2=O)cc2cn[nH]c12)C1CCOCC1 [P-3, 7-(ethyl(tetrahydro-2H-pyran-4-yl)amino)-N-((4-methoxy-6-methyl-2-oxo-1,2-dihydropyridin-3-yl)methyl)-6-methyl-1H-imidazole-5-carboxamide]
pIC50 [1]: 6.81
inhibitory activity against the enzyme (in words) [1]: significantly reduced

CCN(c1c(C)c(C(=O)NCc2c(OC)cc(C)[nH]c2=O)cc2c1cnn2C(F)F)C1CCOCC1 [P-5, 1-(difluoromethyl)-4-(ethyl(tetrahydro-2H-pyran-4-yl)amino)-N-((4-methoxy-6-methyl-2-oxo-1,2-dihydropyridin-3-yl)methyl)-5-methyl-1H-indazole-6-carboxamide]
pIC50 (Pfeiffer cells; Homo sapiens, 144 h): 7.15

CCN(c1c(C)c(C(=O)NCc2c(C)cc(C)[nH]c2=O)cc2c1cnn2C)C1CCOCC1 [P-7, N-((4,6-dimethyl-2-oxo-1,2-dihydropyridin-3-yl)methyl)-4-(ethyl(tetrahydro-2H-pyran-4-yl)amino)-1,5-dimethyl-1H-indazole-6-carboxamide]
pIC50 (Pfeiffer cells; Homo sapiens, 144 h): 6.80

CCN(c1c(C)c(C(=O)NCc2c(C)cc(C)[nH]c2=O)cc2c1cnn2C)C1CCN(CC(F)(F)F)CC1 [P-8, N-((4,6-dimethyl-2-oxo-1,2-dihydropyridin-3-yl)methyl)-4-(ethyl(1-(2,2,2-trifluoroethyl)piperidin-4-yl)amino)-1,5-dimethyl-1H-indazole-6-carboxamide]
pIC50 [1]: 7.28

CCN(c1c(C)c(C(=O)NCc2c(C)cc(C)[nH]c2=O)cc2c1cnn2C)C1CCC(N(C)CCOC)CC1 (stereo not drawn) [P-9, N-((4,6-dimethyl-2-oxo-1,2-dihydropyridin-3-yl)methyl)-4-(ethyl (4-((2-methoxyethyl)(methyl)amino)cyclohexyl)amino)-1,5-dimethyl-1H-indazole-6-carboxamide]
pIC50 (Pfeiffer cells; Homo sapiens, 144 h): 7.49
pIC50 [1]: 8.05

CCN(c1c(C)c(C(=O)NCc2c(C)cc(C)[nH]c2=O)cc2c1cnn2C(F)F)C1CCOCC1 [P-10, 1-(difluoromethyl)-N-((4,6-dimethyl-2-oxo-1,2-dihydropyridin-3-yl)methyl)-4-(ethyl(tetrahydro-2H-pyran-4-yl)amino)-5-methyl-1H-indazole-6-carboxamide]
pIC50 (Pfeiffer cells; Homo sapiens, 144 h): 6.85
pIC50 [1]: 7.21

CCN(c1c(C)c(C(=O)NCc2c(OC)cc(C)[nH]c2=O)cc2c1cnn2C)C1CCN(CC(F)(F)F)CC1 [P-11, 4-(ethyl(1-(2,2,2-trifluoroethyl)piperidin-4-yl)amino)-N-((4-methoxy-6-methyl-2-oxo-1,2-dihydropyridin-3-yl)methyl)-1,5-dimethyl-1H-indazole-6-carboxamide]
pIC50 (Pfeiffer cells; Homo sapiens, 144 h): 6.53
pIC50 [1]: 7.89

CCN(c1c(C)c(C(=O)NCc2c(OC)cc(C)[nH]c2=O)cc2nn(C)cc12)C1CCN(CC(F)(F)F)CC1 [P-12, 4-(ethyl(1-(2,2,2-trifluoroethyl)piperidin-4-yl)amino)-N-((4-methoxy-6-methyl-2-oxo-1,2-dihydropyridin-3-yl)methyl)-2,5-dimethyl-2H-indazole-6-carboxamide]
pIC50 [1]: 6.93

CCN(c1c(C)c(C(=O)NCc2c(C)cc(C)[nH]c2=O)cc2c1cnn2C)[C@H]1CC[C@@H](N(C)C)CC1 [P-13, N-((4,6-dimethyl-2-oxo-1,2-dihydropyridin-3-yl)methyl)-4-(((1S, 4S)-4-(dimethylamino)cyclohexyl) (ethyl)amino)-1,5-dimethyl-1H-indazole-6-carboxamide]
pIC50 [1]: 7.64

CCN(c1c(C)c(C(=O)NCc2c(C)cc(C)[nH]c2=O)cc2c1cnn2C)[C@H]1CC[C@H](N(C)C)CC1 [P-14, N-((4,6-dimethyl-2-oxo-1,2-dihydropyridin-3-yl)methyl)-4-(((1R, 4R)-4-(dimethylamino)cyclohexyl)(ethyl)amino)-1,5-dimethyl-1H-indazole-6-carboxamide]
pIC50 (Pfeiffer cells): 6.67
pIC50 [1]: 8.30

CCN(c1c(C)c(C(=O)NCc2c(OC)cc(C)[nH]c2=O)cc2c1cnn2C)C1CCC(N(C)CCOC)CC1 (stereo not drawn) [P-15, 4-(ethyl(4-((2-methoxyethyl) (methyl)amino)cyclohexyl)amino)-N-((4-methoxy-6-methyl-2-oxo-1,2-dihydropyridin-3-yl)methyl)-1,5-dimethyl-1H-indazole-6-carb oxamide]
pIC50 (Pfeiffer cells; Homo sapiens, 144 h): 7.12
pIC50 [1]: 8.15

CCc1c(C(=O)NCc2c(OC)cc(C)[nH]c2=O)cc2c(cnn2C)c1N(CC)C1CCOCC1 [P-16, 5-ethyl-4-(ethyl(tetrahydro-2H-pyran-4-yl)amino)-N-((4-methoxy-6-methyl-2-oxo-1,2-dihydropyridin-3-yl)methyl)-1-methyl-1H-indazole-6-carboxamide]
pIC50 (Pfeiffer cells; Homo sapiens, 144 h): 8.15
pIC50 [1]: 8.10

CCc1c(C(=O)NCc2c(C)cc(C)[nH]c2=O)cc2c(cnn2C)c1N(CC)C1CCOCC1 [P-17, N-((4,6-dimethyl-2-oxo-1,2-dihydropyridin-3-yl)methyl)-5-ethyl-4-(ethyl(tetrahydro-2H-pyran-4-yl)amino)-1-methyl-1H-indazole-6-carboxamide]
pIC50 (Pfeiffer cells; Homo sapiens, 144 h): 7.44
pIC50 [1]: 8.10

CCc1c(C(=O)NCc2c(C)cc(C)[nH]c2=O)cc2c(cnn2C)c1N(CC)C1CCC(N2CC(C)C2)CC1 [P-18, N-((4,6-dimethyl-2-oxo-1,2-dihydropyridin-3-yl)methyl)-5-ethyl-4-(ethyl((1S,4S)-4-(3-methylazetiazin-1-yl)cyclohexyl)amino)-1-methyl-1H-indazole-6-carboxamide]
pIC50 (Pfeiffer cells): 8.15
pIC50 [1]: 7.92

CCc1c(C(=O)NCc2c(C)cc(C)[nH]c2=O)cc2c(cnn2C)c1N(CC)[C@H]1CC[C@H](N2CC(OC)C2)CC1 [P-19]
pIC50 (Pfeiffer cells): 7.12
pIC50 [1]: 7.35

CCc1c(C(=O)NCc2c(C)cc(C)[nH]c2=O)cc2c(cnn2C)c1N(CC)C1CCC(N(C)CCOC)CC1 [P-20, N-((4,6-dimethyl-2-oxo-1,2-dihydropyridin-3-yl)methyl)-5-ethyl-4-(ethyl((1S, 4S)-4-((2-methoxyethyl)(methyl)amino)cyclohexyl)amino)-1-methyl-1H-indazole-6-carboxamide]
pIC50 (Pfeiffer cells): 7.51
pIC50 [1]: 7.74

CCN(c1c(C)c(C(=O)NCc2c(C)cc(C)[nH]c2=O)cc2c1cnn2C)C1CCN(C2CCOCC2)CC1 [P-33]
pIC50 [1]: 7.43

CCN(c1c(C)c(C(=O)NCc2c(C)cc(C)[nH]c2=O)cc2c1cnn2CC1CCOC1)C1CCOCC1 (stereo not drawn) [P-40]
pIC50 (Pfeiffer cells; Homo sapiens, 144 h): 6.57

CCN(c1c(C)c(C(=O)NCc2c(C)cc(C)[nH]c2=O)cc2c1c(C)nn2C)C1CCC(N(C)C)CC1 (stereo not drawn) [P-42]
pIC50 [1]: 6.60
inhibitory activity against the enzyme (in words) [1]: greatly reduced

CCN(c1c(C)c(C(=O)NCc2c(C)cc(C)[nH]c2=O)cc2c1cnn2C)C1CCC(N(C)CC(F)F)CC1 (stereo not drawn) [P-45, 4-((4-((2,2-difluoroethyl) (methyl)amino)cyclohexyl)(ethyl)amino)-N-((4,6-dimethyl-2-oxo-1,2-dihydropyridin-3-yl)methyl)-1,5-dimethyl-1H-indazole-6-carboxamide]
pIC50 [1]: 7.57

CCN(c1c(C)c(C(=O)NCc2c(C)cc(C)[nH]c2=O)cc2c1cnn2C)C1CCC(C)(N)CC1 (stereo not drawn) [P-46]
pIC50 [1]: 7.28

CCN(c1c(C)c(C(=O)NCc2c(OC)cc(C)[nH]c2=O)cc2nn(C)cc12)C1CCOCC1 [P-50, 4-(ethyl(tetrahydro-2H-pyran-4-yl)amino)-N-((4-methoxy-6-methyl-2-oxo-1,2-dihydropyridin-3-yl)methyl)-2,5dimethyl-2H-indazole-6-carboxamide]
pIC50 [1]: 6.83
inhibitory activity against the enzyme (in words) [1]: significantly reduced

From patent publication US11104664B2, “4,5,6-trisubstituted indazole derivatives, and preparation method and pharmaceutical use thereof” (SHANGHAI HAIYAN PHARMACEUTICAL TECHNOLOGY CO., LTD., priority 2016, dated 2021)
